According to patent US6506936B1, “N-substituted arylsulfonylamino hydroxamic acids useful as inhibitors of c-proteinase and for treating or preventing disorders related to unregulated collagen production” (FibroGen, Inc., priority 1999, dated 2003):

System: human foreskin fibroblasts
Assay: Cytotoxicity: metabolic activity (WST-1) of quiescent fibroblasts exposed to inhibitor
Type: cell-based
Conditions: 25 μM compound, 0.5% DMSO, 48 hours, 60% or below = very sick or dead
Experimental: C-proteinase inhibitors were studied in cytotoxicity assays wherein quiescent cells were exposed to C-proteinase inhibitors for a given time and cell viability measured. By examining cellular metabolic activity, cell viability and cell survival were determined.
C-proteinase inhibitors were tested on human foreskin fibroblasts that had been grown to confluence in 96 well microtiter plates in Dulbecco's Modified Eagle Medium (DMEM) containing 10% fetal calf serum. Shortly before adding the inhibitors, the media was removed and 90 μl per microtiter well of fresh serum-free DMEM was added to the cells. The C-proteinase inhibitors were made up as concentrated stocks containing compound at 250 μM in the presence of 5% DMSO as solvent. A concentrated stock of 10 μl was added to each microtiter well to give a final compound concentration of 25 μM in the presence of 0.5% DMSO. The cells were incubated in the presence of the C-proteinase inhibitor for 48 hours, and then cell viability and survival were measured as a function of metabolic activity. To examine cellular metabolic activity, 10 μl of WST-1 reagent (Boehringer Mannheim) was added to each well of a 96 well microtiter plate containing quiescent cells that were already in media. The plate was incubated at 37° C. for 120 minutes and removed. The absorbance at 450 nm-650 nm was recorded. […] Controls included untreated healthy cells, and cells killed with 0.1% saponin.
Cytotoxicity was evaluated as a function of cellular survival. Cellular survival was determined by measuring the metabolic activity of the quiescent cells after exposure to the C-proteinase inhibitors. To determine the metabolic activity of the cells, the color change of a trazolium dye over time was examined according to Mossmann, […], Immunol. Methods 65:66; Carmichael, 1987, Cancer Res 47:936, incorporated herein by reference. Healthy cells cleaved the dye producing a colored product that can be quantitated. […] Dead cells had no metabolic activity and no effect on the dye was shown.
The amount of dye cleaved by cells that had been incubated with inhibitor, expressed as a percentage relative to untreated cells, is shown in TABLE 2. Cells that register at 60% or below are considered either very sick or dead. Control cells that were intentionally killed give a value of close to 20%.

Row | Structure (SMILES) | Percent Metabolic Activity of Fibroblasts Exposed To Various C-Proteinase Inhibitors Relative to Untreated Fibroblasts [%]
1 | O=C(CCN(CCc1cccs1)S(=O)(=O)c1ccc(Br)s1)NO [Compound 1417] | 120.3
2 | CS(=O)(=O)c1ccc(S(=O)(=O)N(CCC(=O)NO)Cc2ccc3c(c2)OCO3)cc1 [Compound 1464] | 111.0
3 | O=C(CCN(Cc1ccc2c(c1)OCO2)S(=O)(=O)c1ccc(Br)s1)NO [Compound 1367] | 114.5
4 | COc1ccc(S(=O)(=O)N(CCC(=O)NO)CCc2ccc(Cl)cc2)cc1 [Compound 1300] | 109.9
5 | O=C(CCN(Cc1ccc2c(c1)OCO2)S(=O)(=O)c1cccs1)NO [Compound 1371] | 114.4
6 | N/C(=N\O)c1cccc(S(=O)(=O)N(CCC(=O)NO)CCc2cccs2)c1 [Compound 1457] | 107.4
7 | COc1ccc(CCN(CCC(=O)NO)S(=O)(=O)c2cccc(/C(N)=N/O)c2)cc1 [Compound 1456] | 106.8
8 | CC(=O)Nc1ccc(S(=O)(=O)N(CCC(=O)NO)CCc2cccs2)cc1 [Compound 1411] | 108.2
9 | O=C(CCN(Cc1ccc2c(c1)OCO2)S(=O)(=O)c1cccc2nsnc12)NO [Compound 1362] | 119.4
